Laboratory results published in article PMC8778984 (Pharmaceutics, 2021).
“Also recorded” adds a separate entry of the source. Read-outs that look alike come from different tables or passages of the source.

Key:
[1] = target: T1, DHFR (dihydrofolate reductase), partially purified from chicken liver (Gallus gallus, UniProt P00378); test: Cell-free enzymatic assay for DHFR (NADPH oxidation, absorbance at 340 nm); format: biochemical; conditions: for % Inhibition relative to MTX: DHFR inhibitory potency relative to MTX
T1 construct: Fresh chicken liver (20 g) was cut into pieces, homogenized in 0.1 M MnCl2 and centrifuged; from tissue; host or cells: chicken liver
T1 sequence (P00378 1-189): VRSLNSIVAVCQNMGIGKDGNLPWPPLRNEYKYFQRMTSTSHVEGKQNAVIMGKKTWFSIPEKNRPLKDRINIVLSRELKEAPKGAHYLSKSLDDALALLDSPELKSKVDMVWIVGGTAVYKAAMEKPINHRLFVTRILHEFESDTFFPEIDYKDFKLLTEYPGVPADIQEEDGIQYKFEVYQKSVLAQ
Method: This was carried out by the procedure of Kaufman and Kemerer with some modifications: Fresh chicken liver (20 g) was cut into pieces, homogenized in 0.1 M MnCl2 and centrifuged. The supernatant was brought to pH 5–6 with HCl, and ZnSO4 was added gradually to obtain a final concentration of 20 mM. The pH was elevated to pH 7.5–8 by the addition of solid NaHCO3. […] The proteins that remained in the supernatant were precipitated with 4.54 M ammonium sulfate. The precipitate was then dissolved in 50 mM Tris-HCl (pH 7.5) containing 0.1 M KCl and dialyzed for two days against the same buffer, and then frozen in aliquots at −80 °C until used.
(§1) The assay was based on DHFR-dependent reduction of dihydrofolate to tetrahydrofolate. In this process, NADPH is oxidized to NADP, and the extent of the oxidation is monitored by the decrease in absorbance at 340 nm. Tubes containing 1.0 mL each of 0.05 M Tris-HCl buffer (pH 7.5) 0.5 M KCl, 0.137 mM NADPH, and 0.187 mM DHF were incubated for 1 h at 25 °C in the absence and the presence of partially purified DHFR (35 µg/mL) and increasing concentrations of MTX or its derivatives. The absorbance at 340 nm was then monitored.
Figure 1 Inhibition of dihydrofolate reductase by MTX and MTX analogues. The indicated concentrations of MTX and its derivatives were analyzed for their potencies to inhibit the reduction of dihydrofolate to tetrahydrofolate by DHFR. In this process, NADPH is oxidized to NADP and the extent of this oxidation is monitored by the decrease in absorbance at 340 nm (experimental section).

[2] = target: T2, DHFR (dihydrofolate reductase) (Gallus gallus, UniProt P00378); test: Reactivation of BSA–MTX analogues by DTT, GSH or L-cysteine, read out as DHFR inhibitory potency; format: biochemical, chicken; conditions: for Fold Reactivation by DTT: 2 mM DTT (dithiothreitol); for reactivation by glutathione and L-cysteine (in words): GSH or L-cysteine at concentrations of 100 μM or lower; for % Activity Relative to MTX: Table 2, + 2 mM DTT
T2 construct: Fresh chicken liver (20 g) was cut into pieces, homogenized in 0.1 M MnCl2 and centrifuged; from tissue; host or cells: chicken liver
T2 sequence (P00378 1-189): T1 sequence (P00378 1-189)
Method: as §1
A solution of BSA–GSSG–MTX (50 μM in 0.1 M HEPES buffer, pH 7.4, 130 mM NaCl) was divided into plastic tubes (1.0 mL/tube) and incubated for 2 h at 25 °C in the absence and the presence of 2 mM DTT and the indicated concentrations of either GSH or L-cysteine. Samples were then analyzed for their DHFR inhibitory potencies and the IC50 values were determined. Results are expressed as percent of maximal reactivation (obtained by preincubation with 2 mM DTT). Each point is the arithmetic mean of n = 4 tubes ± SEM.

CNS-1 rat glioma cells = test: Growth inhibition, MTT viability assay, CNS-1 cells; format: cell-based; conditions: for inhibition compared with MTX (in words): CNS-1 (Figure 4B), at 10 µM, to a lesser extent at 1 µM; for antiproliferative potency compared with MTX (in words): MTX-sensitive cell line CNS-1, 48 h MTT; for antiproliferative potency, BSA–S–S–MTX compared with BSA–(CH2)6–MTX (in words): sensitive glioma cell line CNS-1
Method: (§2) In this study, we used two glioma cell lines: (i) CNS-1; rat glioma; (ii) U251; human glioma. Cells were a generous gift from Dr. Yael Mardor from the Sheba Medical Center, Israel.
(§3) Cancer cell lines were grown in monoculture in 96-well plates in RPMI (CNS-1 cells) or DMEM containing 10% fetal bovine serum, 2 mM L-glutamine, penicillin (100 units/mL), and streptomycin (0.1 mg/mL) under humidified atmosphere containing 5% CO2. […] Cell viability was measured after 48 h using a standard MTT (3-(4,5-dimethylthiazol-2-yl)-2,5-diphenyltetrazolium bromide) assay, as described before.

U251 human glioma cells = test: Growth inhibition, MTT viability assay, U251 cells; format: cell-based; conditions: for antiproliferative potency compared with MTX (in words): MTX-insensitive glioma cell line U251, 48 h MTT; for antiproliferative potency, BSA–S–S–MTX compared with BSA–(CH2)6–MTX (in words): insensitive glioma cell line U251
Method: as §2, §3

cancer cell lines = test: Antiproliferative efficacy in the cancer cell lines (unpublished results); format: cell-based
[3] = Maleimide–thiol exchange assay (incubation with GSH, dialysis, absorbance at 372 nm); format: physicochemical
Method: BSA–S–MAL–(CH2)3–CONH–MTX (0.2 mM) was dissolved in 1.0 mL 0.1 M HEPES, pH 7.3, and transferred to a tube containing 7.5 mg GSH corresponding to […] which are 100 molar excess over the conjugate. The solution was incubated for 7 h at 37 °C, followed by extensive dialysis and lyophilization. Absorbance was read at 372 nm.

glioma cell lines = conditions: read-out: average EC50; variety of glioma cell lines, large variation among lines; cited from earlier work
[4] = parameters: method as in printed; conditions: ref not given, cited from earlier work
[5] = Table 1, 1 h at 25 °C, 0.137 mM NADPH, 0.187 mM DHF, read-out: IC50
[6] = Table 2, without DTT, read-out: DHFR Inhibitory Potency (IC50)

For CN(Cc1cnc2nc(N)nc(N)c2n1)c1ccc(C(=O)NC(CCC(=O)NCCS)C(=O)O)cc1 (centres unmarked) [MTX–cystamine, MTX–CONH–(CH2)2–SH], the IC50 [1, 5] was 340 ± 11 nM and the “% Inhibition relative to MTX” value ([1]; Table 1) was 16.2%.
In the case of “BSA–S–MAL–(CH2)3–CONH–(CH2)2–S–S–(CH2)2–NH^γCO–MTX [BSA–S–S–MTX]”, the “Fold Reactivation by DTT” value [2] is reported as 7.05 fold, the “reactivation by GSH (in words)” value ([2]; GSH at a concentration of 1 mM or higher) is reported as “reactivated” and the “reactivation by glutathione and L-cysteine (in words)” value [2] is reported as “do not reactivate”. The “% Activity Relative to MTX” value [2] was 14.1%, the “inhibition compared with MTX (in words)” value (CNS-1 rat glioma cells) was “significantly more inhibitory than MTX” and the “antiproliferative potency compared with MTX (in words)” value (CNS-1 rat glioma cells) was “less potent than MTX”. The “antiproliferative potency, BSA–S–S–MTX compared with BSA–(CH2)6–MTX (in words)” value (CNS-1 rat glioma cells) was “slightly less potent than BSA–(CH2)6–MTX; also recorded: essentially equipotent”, the “% Activity Relative to MTX” value ([1]; Table 2, without DTT) was 2.0% and the IC50 [1, 6] was 2750 ± 200 nM. For the same compound, the “antiproliferative potency compared with MTX (in words)” value (U251 human glioma cells) was “significantly more potent” and the “antiproliferative potency, BSA–S–S–MTX compared with BSA–(CH2)6–MTX (in words)” value (U251 human glioma cells) was “slightly less potent than BSA–(CH2)6–MTX; also recorded: essentially equipotent”.
With “BSA–S–MAL–(CH2)3–CO–NH–GSSG–NH^γCO–MTX [BSA–GSSG–MTX]” the “antiproliferative efficacy (in words)” value (cancer cell lines) was “low antiproliferative efficacy”, the “Fold Reactivation by DTT” value [2] was 5.16 fold and the “reactivation by glutathione and L-cysteine (in words)” value [2] was “do not reactivate”. For the same compound, the “% Activity Relative to MTX” value [2] was 16.2%, the “reactivation of DHFR inhibitory potency by GSH and cysteine (in words)” value ([2]; cell-free state) was “highly effective in reactivating” and the “% Activity Relative to MTX” value ([1]; Table 2, without DTT) was 3.14%. For the same compound, the IC50 [1, 6] was 1750 ± 120 nM.
With “BSA–S–MAL–(CH2)3–CONH–(CH2)6–NH^γCO–MTX [BSA–(CH2)6–MTX]” the “inhibition compared with MTX (in words)” value (CNS-1 rat glioma cells) was “significantly more inhibitory than MTX”, the “antiproliferative potency compared with MTX (in words)” value (CNS-1 rat glioma cells) was “less potent than MTX” and the “antiproliferative potency, BSA–S–S–MTX compared with BSA–(CH2)6–MTX (in words)” value (CNS-1 rat glioma cells) was “essentially equipotent”. For the same compound, the “% Activity Relative to MTX” value ([1]; Table 2, without DTT) was 7.0%, the IC50 [1, 6] was 790 ± 30 nM and the “maleimide–thiol exchange (in words)” value ([3]; 100-fold molar excess of GSH, 7 h, pH 7.3, 37 °C, listed as BSA–S–MAL–(CH2)3–CONH–MTX) was “did not undergo significant maleimide–thiol exchange; also recorded: such exchange does not occur”. The “Absorbance at 372 nm per mg Protein” value ([3]; Control (no GSH)) was 0.479 ± 0.03, the “Absorbance at 372 nm per mg Protein” value ([3]; GSH, 100 molar excess, 7 h, 37 °C, pH 7.3, then dialysis) was 0.487 ± 0.03 and the “cleavage of the spacer peptide bond (in words)” value ([3]; neutral pH) was “not cleaved”. For the same compound, the “antiproliferative potency compared with MTX (in words)” value (U251 human glioma cells) was “significantly more potent” and the “antiproliferative potency, BSA–S–S–MTX compared with BSA–(CH2)6–MTX (in words)” value (U251 human glioma cells) was “essentially equipotent”.
In the case of CN(Cc1cnc2nc(N)nc(N)c2n1)c1ccc(C(=O)N[C@@H](CCC(=O)O)C(=O)O)cc1 [Methotrexate, reference compound], the “viability in comparison to nontreated cells” value (CNS-1 rat glioma cells; CNS-1, at maximal effect, 48 h) is reported as 36%, the EC50 (CNS-1 rat glioma cells; Rattus norvegicus, Glioma cell, CNS-1, 48 h, MTT, read-out: EC50 (concentration needed to obtain 50% of viable cells relative to untreated cells)) is reported as ~70 nM and the Emax (CNS-1 rat glioma cells; Rattus norvegicus, Glioma cell, CNS-1, within 48 h, read-out: maximal effect) is reported as 64%. For the same compound, the EC50 (glioma cell lines) was 2400 nM, the pKa ([4]; α-carboxylate) was ~ 2.1 and the pKa ([4]; γ-carboxylate) was ~ 4.1. The EC50 (U251 human glioma cells; Homo sapiens, U-251, U251, 48 h, MTT, read-out: EC50 (concentration needed to obtain 50% of viable cells relative to untreated cells)) was ~10000 nM and the Emax (U251 human glioma cells; Homo sapiens, U-251, U251, at ~10 µM, within 48 h, read-out: maximum effect) was 49%.
With CN(Cc1cnc2nc(N)nc(N)c2n1)c1ccc(C(=O)N[C@@H](CCC(=O)NCCCCCCN)C(=O)O)cc1 [MTX–hexylamine, MTX–CONH–(CH2)6–NH2] the IC50 [1, 5] was 80 ± 4 nM, the “% Inhibition relative to MTX” value ([1]; Table 1) was 69% and the “% of the DHFR inhibitory potency of MTX” value ([1]; running text and scheme legend) was 69%.
In the case of CN(Cc1cnc2nc(N)nc(N)c2n1)c1ccc(C(=O)NC(CCC(=O)NCCSSCCN)C(=O)O)cc1 (centres unmarked) [MTX–dicystamine, MTX–CONH–(CH2)2–S–S–(CH2)2–NH2], the IC50 [1, 5] is reported as 110 ± 12 nM and the “% Inhibition relative to MTX” value ([1]; Table 1) is reported as 50%.
